Among the test systems are UACC-62 melanoma; A498 renal; CCRF-CEM leukemia; SF-539 CNS; NCI-H460 lung; HOP-62 NSCLC; UACC-257 melanoma; CAKI-1 renal; IGROV1 ovarian; SK-MEL-2 melanoma; SF-268 CNS.
Common to all, as to assay: NCI anticancer screen, dose series, 48 h

The structures appear in SMILES notation.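 Method: 48-hour compound exposure of cells in 96-well plates, five concentrations, linear interpolation of endpoints. GI50: concentration for 50% inhibition of growth. At the TGI there is no net growth.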

With `C[n+]1c(-c2ccc(/C=N\Nc3ccnc(N/N=C/c4ccc(-c5cn6ccsc6[n+]5C)cc4)n3)cc2)cn2ccsc21`, the TGI in the assay on UACC-62 melanoma is 76.4 µM; with A498 renal, 54.8 µM; in the assay with CCRF-CEM leukemia, 63.8 µM; in the assay on SF-539 CNS it was 70.3 µM; in the assay with NCI-H460 lung, above 100 µM; in the assay on HOP-62 NSCLC it was 51.6 µM. Moreover, the results for the TGI in the assay on UACC-257 melanoma, with CAKI-1 renal and in the assay with IGROV1 ovarian were 43.9 µM, 80.8 µM and 65.4 µM, respectively.
For the compound `O=Nn1c2ccccc2c2ccccc21`, the TGI in the assay with UACC-62 melanoma was above 100 µM; in the assay with SK-MEL-2 melanoma, above 100 µM; with A498 renal, 75.7 µM; with CCRF-CEM leukemia, above 100 µM; with SF-539 CNS it was above 100 µM; in the assay with NCI-H460 lung it was above 100 µM. Also, the TGI in the assay on SF-268 CNS, in the assay with HOP-62 NSCLC, in the assay on UACC-257 melanoma, in the assay with CAKI-1 renal and in the assay on IGROV1 ovarian was above 100 µM each time.
Regarding `CC(C)=NC(C(=O)O)C(C)(C)S` (configuration not stated), the TGI in the assay with UACC-62 melanoma, with SK-MEL-2 melanoma, in the assay with A498 renal, with CCRF-CEM leukemia, in the assay on SF-539 CNS and in the assay on NCI-H460 lung was above 100 µM each time. The TGI with SF-268 CNS, in the assay with HOP-62 NSCLC, in the assay on UACC-257 melanoma, in the assay with CAKI-1 renal and with IGROV1 ovarian was above 100 µM in each case.
Take `CCOC(=O)CCCc1cc(=O)c2c(C)c3[nH]c4ccc(Cl)cc4c3c(C)c2[nH]1`: the TGI in the assay with SK-MEL-2 melanoma was 71.8 µM; in the assay on A498 renal, 36.5 µM; in the assay with CCRF-CEM leukemia, above 100 µM; with SF-539 CNS, 31.6 µM; with NCI-H460 lung it was 32.7 µM; with SF-268 CNS it was 54 µM. In addition, the TGI with HOP-62 NSCLC is 44.4 µM; in the assay on UACC-257 melanoma, above 100 µM; in the assay with CAKI-1 renal, 43.2 µM; with IGROV1 ovarian it was 86.4 µM.
Regarding `COc1ncnc2c(Cl)c(C(O)c3ccccc3)c(Cl)cc12` (configuration not stated), the TGI with UACC-62 melanoma was 52.1 µM; with SK-MEL-2 melanoma, above 100 µM; with A498 renal, 53.2 µM; with SF-539 CNS, 50.2 µM; with NCI-H460 lung it was above 100 µM; with SF-268 CNS, 57.7 µM. The TGI is 32.5 µM in the assay on HOP-62 NSCLC, above 100 µM in the assay with UACC-257 melanoma, above 100 µM in the assay with CAKI-1 renal and above 100 µM in the assay with IGROV1 ovarian.
As to `OCC1NC(CO)C(O)C1O` (configuration not stated), the TGI with UACC-62 melanoma, with SK-MEL-2 melanoma, with A498 renal, in the assay on CCRF-CEM leukemia, in the assay on NCI-H460 lung and in the assay on HOP-62 NSCLC was above 100 µM in each case. The TGI with UACC-257 melanoma, in the assay with CAKI-1 renal and in the assay on IGROV1 ovarian was above 100 µM throughout.
For the compound `CC=C/C=C/[C@@H]1O[C@](O)([C@H](CC)C(=O)NC/C=C/C=C(\C)[C@@H](OC)[C@@H](C)[C@@H]2O[C@H](/C=C/C=C/C=C(\C)C(=O)c3c(O)cc[nH]c3=O)[C@H](O)[C@@H]2O)[C@H](O)[C@H](O)C1(C)C`, the TGI in the assay on UACC-62 melanoma, in the assay on SK-MEL-2 melanoma, with A498 renal, in the assay on SF-539 CNS, with NCI-H460 lung and with SF-268 CNS was above 100 µM in each case. For the same compound, the TGI in the assay on HOP-62 NSCLC, in the assay with UACC-257 melanoma and in the assay on IGROV1 ovarian was above 100 µM each time.
For `COc1ccc(CCn2ccc(C)n2)c(OC)c1`, the TGI in the assay with UACC-62 melanoma, with CCRF-CEM leukemia, in the assay on SF-539 CNS, in the assay on NCI-H460 lung, in the assay on SF-268 CNS and in the assay with HOP-62 NSCLC was above 100 µM each time. The TGI in the assay on UACC-257 melanoma, in the assay with CAKI-1 renal and with IGROV1 ovarian was above 100 µM throughout.
Consider `CC(C)N(CCNc1nc(C(Cl)(Cl)Cl)nc2cc(Cl)ccc12)C(C)C`, for which the GI50 is 1.72 µM in the assay with UACC-62 melanoma; 1.76 µM in the assay with SK-MEL-2 melanoma; 1.27 µM in the assay with A498 renal; 1.82 µM in the assay with SF-539 CNS; 1.13 µM in the assay with NCI-H460 lung; 1.97 µM in the assay on SF-268 CNS. For the same compound, the GI50 is 1.6 µM in the assay with HOP-62 NSCLC, 1.93 µM in the assay with UACC-257 melanoma and 1.6 µM in the assay on CAKI-1 renal. In addition, the TGI in the assay with UACC-62 melanoma came to 3.22 µM; with SK-MEL-2 melanoma, 3.63 µM; in the assay with A498 renal, 2.66 µM; in the assay on SF-539 CNS, 3.38 µM; in the assay with NCI-H460 lung, 2.6 µM; with SF-268 CNS, 4.44 µM. In addition, the values for the TGI in the assay with HOP-62 NSCLC, in the assay on UACC-257 melanoma and in the assay with CAKI-1 renal were 3.12 µM, 3.49 µM and 3.17 µM, respectively.
Turning to `Nc1nc(N)c(N=Nc2ccccc2)c(=O)[nH]1`, the TGI in the assay on UACC-62 melanoma is 69.7 µM; with SK-MEL-2 melanoma, above 100 µM; with A498 renal, above 100 µM; with CCRF-CEM leukemia, above 100 µM; in the assay with SF-539 CNS, above 100 µM; in the assay on NCI-H460 lung, above 100 µM. The TGI in the assay with SF-268 CNS, in the assay on HOP-62 NSCLC, with UACC-257 melanoma, with CAKI-1 renal and in the assay with IGROV1 ovarian was above 100 µM throughout.
As to `O=S1(=O)C[C@H](NCc2ccccc2)[C@H](NCc2ccccc2)C1`, the TGI with UACC-62 melanoma, in the assay on SK-MEL-2 melanoma, in the assay on CCRF-CEM leukemia, in the assay on SF-539 CNS, in the assay with NCI-H460 lung and with SF-268 CNS was above 100 µM throughout. Further, the TGI in the assay with HOP-62 NSCLC, in the assay with UACC-257 melanoma, in the assay with CAKI-1 renal and with IGROV1 ovarian was above 100 µM each time.
With `CCOP(=O)(OCC)C(Cc1c[nH]c2ccccc12)C(=O)O` (configuration not stated), the TGI in the assay with SK-MEL-2 melanoma, with A498 renal, in the assay with CCRF-CEM leukemia, with NCI-H460 lung, in the assay with HOP-62 NSCLC and in the assay on UACC-257 melanoma was above 100 µM throughout. Further, the TGI in the assay on CAKI-1 renal and in the assay on IGROV1 ovarian was above 100 µM each time.
On to `O=C(Nc1ccc(C(F)(F)F)cc1[N+](=O)[O-])C(=O)Nn1c(=S)[nH]c2ccccc2c1=O`, for which the TGI with UACC-62 melanoma, with SK-MEL-2 melanoma, in the assay on A498 renal, in the assay with CCRF-CEM leukemia, in the assay on SF-539 CNS and in the assay with NCI-H460 lung was above 100 µM throughout. Further, the TGI with SF-268 CNS, with HOP-62 NSCLC, in the assay on UACC-257 melanoma, in the assay with CAKI-1 renal and in the assay on IGROV1 ovarian was above 100 µM in each case.
Turning to `Cc1ccc(S(=O)(=O)NCCCSCCN)cc1`, the TGI in the assay on A498 renal, with CCRF-CEM leukemia, in the assay with NCI-H460 lung, with SF-268 CNS and with UACC-257 melanoma was above 100 µM in each case.
Consider `COc1ccc(/C=C/c2cc(O)cc(OC3OC(CO)C(O)C(O)C3O)c2)cc1O` (configuration not stated), for which the TGI with UACC-62 melanoma, with SK-MEL-2 melanoma, in the assay with A498 renal, with CCRF-CEM leukemia, in the assay on SF-539 CNS and in the assay with NCI-H460 lung was above 100 µM in each case. Moreover, the TGI in the assay with SF-268 CNS, in the assay with HOP-62 NSCLC, in the assay with UACC-257 melanoma, in the assay with CAKI-1 renal and in the assay on IGROV1 ovarian was above 100 µM in each case.

Values taken from PubChem BioAssay (NCI).
